Measured values from ChEMBL document CHEMBL4052645, “Discovery of potent and efficacious pyrrolopyridazines as dual JAK1/3 inhibitors” (Bioorg Med Chem Lett, 2017).

Legend:
[1] = target: Tyrosine-protein kinase CSK (Homo sapiens) (UniProt P41240); experiment: Inhibition of wild-type human full length CSK (M1 to L450 residues) expressed in bacterial expression system assessed as residual activity at 50 nM by Kinomescan method relative to control
[2] = target: Tyrosine-protein kinase receptor Tie-1 (Homo sapiens) (UniProt P35590); experiment: Inhibition of wild-type human partial length TIE1 (T819 to A1138 residues) expressed in bacterial expression system assessed as residual activity at 50 nM by Kinomescan method relative to control
[3] = target: Serine/threonine-protein kinase N2 (Homo sapiens) (UniProt Q16513); experiment: Inhibition of human PKN2 (E634 to C948 residues) expressed in bacterial expression system assessed as residual activity at 50 nM by KINOMEscan assay relative to control
[4] = target: Mitogen-activated protein kinase 12 (Homo sapiens) (UniProt P53778); experiment: Inhibition of wild-type human full length p38-gamma (M1 to L367 residues) expressed in mammalian expression system assessed as residual activity at 50 nM by Kinomescan method relative to control
[5] = target: Platelet-derived growth factor receptor beta (Homo sapiens) (UniProt P09619); experiment: Inhibition of wild-type human partial length PDGFRB (V582 to Y1009 residues) expressed in bacterial expression system assessed as residual activity at 50 nM by Kinomescan method relative to control
[6] = target: Cyclin-dependent kinase-like 5 (Homo sapiens) (UniProt O76039); experiment: Inhibition of wild-type human partial length CDKL5 (M1 to S337 residues) expressed in mammalian expression system assessed as residual activity at 50 nM by Kinomescan method relative to control
[7] = target: Protein kinase C delta type (Homo sapiens) (UniProt Q05655); experiment: Inhibition of human PKCD (Q328 to D676 residues) expressed in bacterial expression system assessed as residual activity at 50 nM by KINOMEscan assay relative to control
[8] = target: NUAK family SNF1-like kinase 1 (Homo sapiens) (UniProt O60285); experiment: Inhibition of human NUAK1 (25 to I332 residues) expressed in bacterial expression system assessed as residual activity at 50 nM by KINOMEscan assay relative to control
[9] = target: Mitogen-activated protein kinase kinase kinase 6 (Homo sapiens) (UniProt O95382); experiment: Inhibition of wild-type human partial length MAP3K6 (M278 to R972 residues) expressed in mammalian expression system assessed as residual activity at 50 nM by Kinomescan method relative to control
[10] = target: Proto-oncogene tyrosine-protein kinase ROS (Homo sapiens) (UniProt P08922); experiment: Inhibition of wild-type human partial length ROS (A1921 to N2240 residues) expressed in bacterial expression system assessed as residual activity at 50 nM by Kinomescan method relative to control
[11] = target: High affinity nerve growth factor receptor (Homo sapiens) (UniProt P04629); experiment: Inhibition of wild-type human partial length TRKA (G475 to G790 residues) expressed in mammalian expression system assessed as residual activity at 50 nM by Kinomescan method relative to control
[12] = target: Phosphorylase b kinase gamma catalytic chain, liver/testis isoform (Homo sapiens) (UniProt P15735); experiment: Inhibition of wild-type human partial length PHKG2 (M1 to W300 residues) expressed in bacterial expression system assessed as residual activity at 50 nM by Kinomescan method relative to control
[13] = target: Activated CDC42 kinase 1 (Homo sapiens) (UniProt Q07912); experiment: Inhibition of wild-type human partial length ACK (S159 to D474 residues) expressed in bacterial expression system assessed as residual activity at 50 nM by Kinomescan method relative to control
[14] = target: Serine/threonine-protein kinase 26 (Homo sapiens) (UniProt Q9P289); experiment: Inhibition of full lengthhuman MST4 (M1 to P416 residues) expressed in mammalian expression system assessed as residual activity at 50 nM by KINOMEscan assay relative to control
[15] = target: Serine/threonine-protein kinase Nek7 (Homo sapiens) (UniProt Q8TDX7); experiment: Inhibition of wild-type human full length NEK7 (M1 to S302 residues) expressed in bacterial expression system assessed as residual activity at 50 nM by Kinomescan method relative to control
[16] = target: Mitogen-activated protein kinase kinase kinase 4 (Homo sapiens) (UniProt Q9Y6R4); experiment: Inhibition of wild-type human partial length MAP3K4 ([…] residues) expressed in mammalian expression system assessed as residual activity at 50 nM by Kinomescan method relative to control
[17] = target: Serine/threonine-protein kinase Nek4 (Homo sapiens) (UniProt P51957); experiment: Inhibition of wild-type human full length NEK4 (M1 to F841 residues) expressed in mammalian expression system assessed as residual activity at 50 nM by Kinomescan method relative to control
[18] = target: Mitogen-activated protein kinase kinase kinase kinase 2 (Homo sapiens) (UniProt Q12851); experiment: Inhibition of human GCK (M1 to G318 residues) expressed in mammalian expression system assessed as residual activity at 50 nM by KINOMEscan assay relative to control
[19] = target: Mitogen-activated protein kinase 7 (Homo sapiens) (UniProt Q13164); experiment: Inhibition of wild-type human partial length ERK5 (M1 to A409 residues) expressed in bacterial expression system assessed as residual activity at 50 nM by Kinomescan method relative to control
[20] = target: Mitogen-activated protein kinase kinase kinase kinase 3 (Homo sapiens) (UniProt Q8IVH8); experiment: Inhibition of wild-type human partial length KHS2 (M1 to D301 residues) expressed in bacterial expression system assessed as residual activity at 50 nM by Kinomescan method relative to control
[21] = target: Citron Rho-interacting kinase (Homo sapiens) (UniProt O14578); experiment: Inhibition of wild-type human partial length CRIK (M68 to E432 residues) expressed in bacterial expression system assessed as residual activity at 50 nM by Kinomescan method relative to control
[22] = target: STE20-like serine/threonine-protein kinase (Homo sapiens) (UniProt Q9H2G2); experiment: Inhibition of wild-type human partial length SLK (S14 to A307 residues) expressed in bacterial expression system assessed as residual activity at 50 nM by Kinomescan method relative to control
[23] = target: Cyclin-dependent kinase-like 3 (Homo sapiens) (UniProt Q8IVW4); experiment: Inhibition of wild-type human partial length CDKL3 (M1 to D327 residues) expressed in bacterial expression system assessed as residual activity at 50 nM by Kinomescan method relative to control
[24] = target: Eukaryotic translation initiation factor 2-alpha kinase 1 (Homo sapiens) (UniProt Q9BQI3); experiment: Inhibition of wild-type human partial length EIF2AK1 (Q147 to E603 residues) expressed in mammalian expression system assessed as residual activity at 50 nM by Kinomescan method relative to control
[25] = target: Serine/threonine-protein kinase 17B (Homo sapiens) (UniProt O94768); experiment: Inhibition of wild-type human full length DRAK2 (M1 to C372 residues) expressed in bacterial expression system assessed as residual activity at 50 nM by Kinomescan method relative to control

Chain of Mitogen-activated protein kinase kinase kinase 4 (Homo sapiens) (Q9Y6R4 whole entry, the tested form may be a part): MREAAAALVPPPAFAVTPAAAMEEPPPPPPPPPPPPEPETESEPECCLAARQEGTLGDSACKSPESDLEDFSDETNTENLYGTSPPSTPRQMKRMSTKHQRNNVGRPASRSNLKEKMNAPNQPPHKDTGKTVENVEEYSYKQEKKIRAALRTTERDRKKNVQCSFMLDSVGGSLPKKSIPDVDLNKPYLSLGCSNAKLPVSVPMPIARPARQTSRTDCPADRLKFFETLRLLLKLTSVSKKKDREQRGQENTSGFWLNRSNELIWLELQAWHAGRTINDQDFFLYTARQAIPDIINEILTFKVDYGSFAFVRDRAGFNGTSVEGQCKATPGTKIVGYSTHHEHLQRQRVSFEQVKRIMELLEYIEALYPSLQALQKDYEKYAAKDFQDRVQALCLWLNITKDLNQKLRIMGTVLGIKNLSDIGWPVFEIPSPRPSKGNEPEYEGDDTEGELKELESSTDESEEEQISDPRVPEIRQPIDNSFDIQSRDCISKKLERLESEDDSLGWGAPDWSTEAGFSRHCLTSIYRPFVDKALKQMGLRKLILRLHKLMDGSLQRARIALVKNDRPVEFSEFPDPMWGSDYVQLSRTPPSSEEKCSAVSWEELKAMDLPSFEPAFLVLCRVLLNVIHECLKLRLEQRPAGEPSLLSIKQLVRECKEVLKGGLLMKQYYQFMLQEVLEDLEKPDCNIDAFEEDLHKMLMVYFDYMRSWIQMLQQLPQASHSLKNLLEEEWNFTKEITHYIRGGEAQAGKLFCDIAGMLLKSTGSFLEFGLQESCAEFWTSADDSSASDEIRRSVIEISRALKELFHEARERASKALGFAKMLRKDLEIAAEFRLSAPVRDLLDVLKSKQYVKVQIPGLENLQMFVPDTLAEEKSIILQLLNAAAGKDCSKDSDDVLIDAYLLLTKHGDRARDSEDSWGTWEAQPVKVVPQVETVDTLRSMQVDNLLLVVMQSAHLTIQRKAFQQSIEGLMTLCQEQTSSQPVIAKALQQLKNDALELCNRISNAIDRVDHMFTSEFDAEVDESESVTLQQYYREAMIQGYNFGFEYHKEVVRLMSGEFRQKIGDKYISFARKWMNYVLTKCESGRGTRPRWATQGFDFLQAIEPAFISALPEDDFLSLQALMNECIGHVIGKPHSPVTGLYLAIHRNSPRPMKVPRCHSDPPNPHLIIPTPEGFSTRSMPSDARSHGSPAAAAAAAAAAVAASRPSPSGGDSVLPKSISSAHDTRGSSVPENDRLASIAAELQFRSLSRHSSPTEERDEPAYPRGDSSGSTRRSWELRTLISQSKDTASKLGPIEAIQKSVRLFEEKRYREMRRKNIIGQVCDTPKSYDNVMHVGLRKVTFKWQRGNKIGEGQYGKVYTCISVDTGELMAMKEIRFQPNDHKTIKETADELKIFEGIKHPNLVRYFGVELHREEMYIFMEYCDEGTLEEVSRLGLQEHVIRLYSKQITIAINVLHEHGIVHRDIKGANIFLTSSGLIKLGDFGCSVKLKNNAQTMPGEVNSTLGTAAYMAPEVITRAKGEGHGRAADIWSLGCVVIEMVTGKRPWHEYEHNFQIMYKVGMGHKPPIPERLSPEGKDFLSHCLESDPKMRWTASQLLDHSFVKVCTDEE
Chain of Proto-oncogene tyrosine-protein kinase ROS (Homo sapiens) (P08922 whole entry, the tested form may be a part): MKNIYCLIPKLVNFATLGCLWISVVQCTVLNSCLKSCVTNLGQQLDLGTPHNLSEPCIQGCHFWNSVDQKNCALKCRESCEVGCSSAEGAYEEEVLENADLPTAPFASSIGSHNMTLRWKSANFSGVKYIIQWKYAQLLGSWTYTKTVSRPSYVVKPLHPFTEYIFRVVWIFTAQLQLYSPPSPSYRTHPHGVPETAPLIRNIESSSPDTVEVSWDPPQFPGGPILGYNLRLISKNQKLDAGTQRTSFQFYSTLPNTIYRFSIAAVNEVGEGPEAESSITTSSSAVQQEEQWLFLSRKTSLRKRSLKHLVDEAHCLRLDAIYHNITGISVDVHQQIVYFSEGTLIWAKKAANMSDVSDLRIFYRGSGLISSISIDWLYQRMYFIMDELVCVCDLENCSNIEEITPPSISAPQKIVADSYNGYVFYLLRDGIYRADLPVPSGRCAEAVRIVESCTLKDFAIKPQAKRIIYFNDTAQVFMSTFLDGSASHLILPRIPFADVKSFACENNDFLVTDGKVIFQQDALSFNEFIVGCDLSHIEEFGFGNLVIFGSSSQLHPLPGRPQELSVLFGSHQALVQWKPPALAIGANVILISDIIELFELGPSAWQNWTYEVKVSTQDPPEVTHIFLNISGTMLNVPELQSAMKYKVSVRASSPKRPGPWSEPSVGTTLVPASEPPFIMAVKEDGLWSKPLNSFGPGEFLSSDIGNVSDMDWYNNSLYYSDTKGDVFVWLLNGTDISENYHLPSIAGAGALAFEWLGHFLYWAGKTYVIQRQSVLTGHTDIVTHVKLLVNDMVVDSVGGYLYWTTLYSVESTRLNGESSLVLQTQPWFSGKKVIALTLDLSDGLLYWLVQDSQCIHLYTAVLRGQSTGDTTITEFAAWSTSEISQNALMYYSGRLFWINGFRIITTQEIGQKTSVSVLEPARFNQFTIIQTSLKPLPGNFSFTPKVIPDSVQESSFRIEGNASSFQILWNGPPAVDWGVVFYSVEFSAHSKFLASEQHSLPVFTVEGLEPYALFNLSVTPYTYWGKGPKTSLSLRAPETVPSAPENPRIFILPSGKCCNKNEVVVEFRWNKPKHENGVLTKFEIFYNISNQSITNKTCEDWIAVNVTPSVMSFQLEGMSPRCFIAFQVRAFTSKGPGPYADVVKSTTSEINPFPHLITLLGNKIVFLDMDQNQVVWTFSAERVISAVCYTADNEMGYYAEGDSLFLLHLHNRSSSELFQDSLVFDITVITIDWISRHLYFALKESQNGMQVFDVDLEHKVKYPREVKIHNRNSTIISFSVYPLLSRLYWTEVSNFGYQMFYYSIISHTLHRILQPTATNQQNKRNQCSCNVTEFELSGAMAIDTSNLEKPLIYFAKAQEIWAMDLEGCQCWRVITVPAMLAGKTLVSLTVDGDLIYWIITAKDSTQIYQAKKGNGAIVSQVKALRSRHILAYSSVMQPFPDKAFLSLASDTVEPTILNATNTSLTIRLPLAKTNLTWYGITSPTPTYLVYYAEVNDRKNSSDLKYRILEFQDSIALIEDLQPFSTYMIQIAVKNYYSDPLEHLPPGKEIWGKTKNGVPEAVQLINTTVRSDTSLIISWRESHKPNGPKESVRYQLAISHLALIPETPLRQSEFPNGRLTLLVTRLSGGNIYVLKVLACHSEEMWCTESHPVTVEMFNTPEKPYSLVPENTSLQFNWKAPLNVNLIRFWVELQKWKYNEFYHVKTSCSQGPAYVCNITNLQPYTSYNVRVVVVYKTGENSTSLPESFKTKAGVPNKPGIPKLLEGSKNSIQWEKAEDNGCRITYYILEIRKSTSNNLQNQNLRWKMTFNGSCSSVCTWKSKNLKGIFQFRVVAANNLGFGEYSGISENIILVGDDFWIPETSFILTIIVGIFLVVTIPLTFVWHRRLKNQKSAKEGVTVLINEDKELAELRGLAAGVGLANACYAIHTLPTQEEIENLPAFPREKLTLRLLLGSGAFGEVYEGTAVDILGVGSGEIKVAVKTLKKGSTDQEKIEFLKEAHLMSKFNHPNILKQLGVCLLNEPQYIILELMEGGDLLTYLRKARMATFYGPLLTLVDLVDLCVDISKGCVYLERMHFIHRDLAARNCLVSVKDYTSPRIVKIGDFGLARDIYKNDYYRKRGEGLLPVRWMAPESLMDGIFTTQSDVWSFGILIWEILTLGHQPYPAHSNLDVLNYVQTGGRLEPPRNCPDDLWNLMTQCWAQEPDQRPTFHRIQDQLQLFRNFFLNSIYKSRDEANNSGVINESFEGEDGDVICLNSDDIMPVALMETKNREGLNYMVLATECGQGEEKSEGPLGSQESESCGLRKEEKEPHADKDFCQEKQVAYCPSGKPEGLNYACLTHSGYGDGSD
Chain of Mitogen-activated protein kinase kinase kinase kinase 2 (Homo sapiens) (Q12851 whole entry, the tested form may be a part): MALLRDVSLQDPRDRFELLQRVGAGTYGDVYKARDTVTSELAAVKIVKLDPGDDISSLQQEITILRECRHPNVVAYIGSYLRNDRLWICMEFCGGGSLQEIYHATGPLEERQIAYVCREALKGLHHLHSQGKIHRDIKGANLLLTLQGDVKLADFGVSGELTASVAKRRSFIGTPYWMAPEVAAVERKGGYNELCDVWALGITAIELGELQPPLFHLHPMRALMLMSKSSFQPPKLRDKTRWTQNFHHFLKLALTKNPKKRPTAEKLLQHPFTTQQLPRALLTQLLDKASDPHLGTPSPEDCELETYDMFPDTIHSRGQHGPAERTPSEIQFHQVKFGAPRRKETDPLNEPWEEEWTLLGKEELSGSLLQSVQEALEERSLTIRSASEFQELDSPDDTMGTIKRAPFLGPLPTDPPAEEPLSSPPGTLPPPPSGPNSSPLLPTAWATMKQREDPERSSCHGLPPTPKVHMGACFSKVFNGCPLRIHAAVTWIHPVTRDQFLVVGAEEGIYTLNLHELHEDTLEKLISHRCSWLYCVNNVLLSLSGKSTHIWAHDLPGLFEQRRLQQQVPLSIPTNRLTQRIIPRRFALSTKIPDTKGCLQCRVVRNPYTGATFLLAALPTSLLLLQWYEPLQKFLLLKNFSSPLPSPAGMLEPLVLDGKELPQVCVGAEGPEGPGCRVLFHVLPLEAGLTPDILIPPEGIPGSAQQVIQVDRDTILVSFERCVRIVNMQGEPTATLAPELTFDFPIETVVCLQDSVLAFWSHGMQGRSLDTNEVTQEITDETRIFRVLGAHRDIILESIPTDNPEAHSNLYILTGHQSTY
Chain of Mitogen-activated protein kinase 12 (Homo sapiens) (P53778 whole entry, the tested form may be a part): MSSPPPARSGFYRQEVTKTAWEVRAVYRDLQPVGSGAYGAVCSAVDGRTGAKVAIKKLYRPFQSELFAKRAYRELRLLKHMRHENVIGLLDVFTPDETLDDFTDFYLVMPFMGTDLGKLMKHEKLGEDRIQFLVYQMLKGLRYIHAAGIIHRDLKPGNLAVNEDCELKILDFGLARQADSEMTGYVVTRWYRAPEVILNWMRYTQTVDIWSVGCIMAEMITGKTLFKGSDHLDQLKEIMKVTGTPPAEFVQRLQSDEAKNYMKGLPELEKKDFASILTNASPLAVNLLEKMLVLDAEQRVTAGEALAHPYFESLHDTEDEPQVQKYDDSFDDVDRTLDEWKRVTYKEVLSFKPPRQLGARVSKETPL

Row | Compound | Activity [1] | Activity [2] | Activity [3] | Activity [4] | Activity [5] | Activity [6] | Activity [7] | Activity [8] | Activity [9] | Activity [10] | Activity [11] | Activity [12] | Activity [13] | Activity [14] | Activity [15] | Activity [16] | Activity [17] | Activity [18] | Activity [19] | Activity [20] | further results
1 | COc1ccc(-c2cc3c(N[C@@H]4CC[C@](C)(N)C4(C)C)c(C(N)=O)cnn3c2)cn1 | 100% | 97% | 27% | 100% | 64% | 90% | 30% | 6% | 93% | 100% | 100% | 100% | 100% | 23% | 100% | 96% | 100% | 26% | 100% | 49% | Activity [21]: 100%; Activity [22]: 94%; Activity [23]: 98%; Activity [24]: 96%; Activity [25]: 100%
2 | CC1(C)[C@H](Nc2c(C(N)=O)cnn3cc(-c4ccccc4)cc23)CC[C@]1(C)N | 100% | 91% | 3% | 100% | 19% | 83% | 9.5% | 2% | 56% | 100% | 83% | 67% | 73% | 12% | 100% | 96% | 52% | 3.6% | 96% | 18% | Activity [21]: 100%; Activity [22]: 18%; Activity [23]: 100%; Activity [24]: 94%; Activity [25]: 100%
